In ChEMBL document CHEMBL1629478, “Novel alkyl- and arylcarbamate derivatives with N-benzylpiperidine and N-benzylpiperazine moieties as cholinesterases inhibitors” (Eur J Med Chem, 2010):
pIC50: −log10 of the molar value. The source made the active and inactive calls. No cut-off for these calls is given here.

Key:
[1] = biological target: Acetylcholinesterase (Electrophorus electricus) (UniProt O42275); test: Inhibition of electric eel AChE at 100 uM preincubated for 5 mins by Ellman's method
[2] = biological target: Cholinesterase (Equus caballus) (UniProt P81908); test: Inhibition of horse serum BChE at 100 uM preincubated for 5 mins by Ellman's method
[3] = biological target: Cholinesterase (Equus caballus, UniProt P81908)
Description: Inhibition of horse serum BChE preincubated for 5 mins by Ellman's method

[4] = biological target: Acetylcholinesterase (Electrophorus electricus) (UniProt O42275); test: Non-competitive inhibition of electric eel AChE by Lineweaver-Burk plot analysis
[5] = biological target: Cholinesterase (Equus caballus) (UniProt P81908); test: Mixed-type inhibition of horse serum BChE by Lineweaver-Burk plot analysis

Acetylcholinesterase (Electrophorus electricus), sequence (O42275 24-633 limits assumed): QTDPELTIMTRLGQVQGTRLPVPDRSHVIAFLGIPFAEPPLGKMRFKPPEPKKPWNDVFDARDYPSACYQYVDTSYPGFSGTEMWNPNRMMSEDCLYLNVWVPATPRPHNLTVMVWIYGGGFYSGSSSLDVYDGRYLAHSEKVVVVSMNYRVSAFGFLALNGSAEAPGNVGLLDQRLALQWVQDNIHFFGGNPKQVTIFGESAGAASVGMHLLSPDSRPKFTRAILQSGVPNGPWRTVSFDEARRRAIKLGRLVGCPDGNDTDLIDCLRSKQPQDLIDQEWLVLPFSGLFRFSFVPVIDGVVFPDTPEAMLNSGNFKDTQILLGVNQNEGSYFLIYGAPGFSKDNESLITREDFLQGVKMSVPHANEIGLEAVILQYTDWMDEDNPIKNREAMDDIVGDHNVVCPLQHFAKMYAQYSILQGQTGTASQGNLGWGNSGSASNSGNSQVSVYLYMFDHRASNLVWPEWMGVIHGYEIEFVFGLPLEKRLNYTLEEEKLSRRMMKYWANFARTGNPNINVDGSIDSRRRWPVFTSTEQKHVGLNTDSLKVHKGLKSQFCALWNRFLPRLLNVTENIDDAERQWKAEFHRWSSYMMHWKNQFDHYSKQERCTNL
Cholinesterase, sequence (P81908 whole entry): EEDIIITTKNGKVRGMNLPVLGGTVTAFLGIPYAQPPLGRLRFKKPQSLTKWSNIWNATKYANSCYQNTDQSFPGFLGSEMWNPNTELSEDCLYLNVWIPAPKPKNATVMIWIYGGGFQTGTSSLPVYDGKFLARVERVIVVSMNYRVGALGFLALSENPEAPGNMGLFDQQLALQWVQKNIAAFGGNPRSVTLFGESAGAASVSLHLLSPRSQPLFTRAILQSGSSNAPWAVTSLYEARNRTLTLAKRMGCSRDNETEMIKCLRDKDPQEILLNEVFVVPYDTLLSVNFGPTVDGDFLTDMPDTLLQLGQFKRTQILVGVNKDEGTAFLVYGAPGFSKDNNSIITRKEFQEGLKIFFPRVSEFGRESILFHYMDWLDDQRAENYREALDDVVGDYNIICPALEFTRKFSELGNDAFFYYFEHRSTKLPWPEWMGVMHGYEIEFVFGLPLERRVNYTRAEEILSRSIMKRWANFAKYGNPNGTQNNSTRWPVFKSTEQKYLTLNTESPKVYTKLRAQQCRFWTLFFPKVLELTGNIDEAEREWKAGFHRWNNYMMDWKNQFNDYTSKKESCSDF
Cholinesterase (Equus caballus), sequence (P81908 whole entry): as above

Compound	inhibition [1]	inhibition [2]	pIC50 [3]	inhibition [4]	inhibition [5]
CCNC(=O)Oc1ccc(CC(=O)NC2CCN(Cc3ccccc3)CC2)cc1	23.4%	90.4%	4.97	–	–
CC(C)NC(=O)Oc1cccc(CC(=O)NC2CCN(Cc3ccccc3)CC2)c1	34.9%	72.2%	4.53	–	–
CC(C)NC(=O)Oc1ccc(CC(=O)NC2CCN(Cc3ccccc3)CC2)cc1	19.2%	63.1%	4.74	–	–
O=C(Cc1ccc(O)cc1)NC1CCN(Cc2ccccc2)CC1	15.2%	45.6%	–	–	–
CCNC(=O)Oc1cccc(CC(=O)NC2CCN(Cc3ccccc3)CC2)c1	28.5%	68.6%	4.43	–	–
CCCCNC(=O)Oc1cccc(CC(=O)NC2CCN(Cc3ccccc3)CC2)c1	39.9%	92%	5.24	–	–
CCCCNC(=O)Oc1ccc(CC(=O)N2CCN(Cc3ccccc3)CC2)cc1	inactive	83.1%	4.78	–	–
Cc1ccccc1NC(=O)Oc1ccc(CC(=O)NC2CCN(Cc3ccccc3)CC2)cc1	24.7%	46.9%	–	–	–
CN(C)C(=O)Oc1ccc(CC(=O)NC2CCN(Cc3ccccc3)CC2)cc1	46.2%	89.8%	5.05	–	–
CCNC(=O)Oc1cccc(CC(=O)N2CCN(Cc3ccccc3)CC2)c1	inactive	62.5%	4.26	–	–
CN(C)C(=O)Oc1ccc(CC(=O)N2CCN(Cc3ccccc3)CC2)cc1	inactive	32.5%	–	–	–
CC(C)NC(=O)Oc1ccc(CC(=O)N2CCN(Cc3ccccc3)CC2)cc1	inactive	72.2%	4.28	–	–
O=C(Cc1cccc(O)c1)NC1CCN(Cc2ccccc2)CC1	38.1%	49.8%	–	–	–
CCCCNC(=O)Oc1cccc(CC(=O)N2CCN(Cc3ccccc3)CC2)c1	inactive	92.7%	5.00	–	–
CCCCNC(=O)Oc1ccc(CC(=O)NC2CCN(Cc3ccccc3)CC2)cc1	43.7%	63.4%	4.93	–	–
O=C(Cc1ccc(O)cc1)N1CCN(Cc2ccccc2)CC1	inactive	45.3%	–	–	–
CN(C)C(=O)Oc1cccc(CC(=O)NC2CCN(Cc3ccccc3)CC2)c1	50.5%	82.1%	4.66	Active	Active
CCNC(=O)Oc1ccc(CC(=O)N2CCN(Cc3ccccc3)CC2)cc1	inactive	83.4%	4.36	–	–
CN(C)C(=O)Oc1cccc(CC(=O)N2CCN(Cc3ccccc3)CC2)c1	inactive	79%	4.63	–	–
CCCNC(=O)Oc1ccc(CC(=O)N2CCN(Cc3ccccc3)CC2)cc1	inactive	88.3%	4.49	–	–
CC(C)NC(=O)Oc1cccc(CC(=O)N2CCN(Cc3ccccc3)CC2)c1	inactive	77.7%	4.45	–	–
CCCNC(=O)Oc1ccc(CC(=O)NC2CCN(Cc3ccccc3)CC2)cc1	33.8%	95.1%	5.03	–	–
O=C(Cc1cccc(O)c1)N1CCN(Cc2ccccc2)CC1	inactive	31.5%	–	–	–
